For `CC(=O)NCCN(C(=O)N1CCN(C(c2ccccc2)c2ccccc2)C[C@@H]1C(C)C)C1CCN(C(C)=O)CC1` [Example 16], the melting point lay within 90 to 92 °C.

One may read the melting point as the temperature, or range, at which the solid turns liquid.
